The assay deals with PAH-PCLS. Briefly: Ex vivo precision-cut lung slices (PCLS) from PAH lungs, medial wall thickness. The assay is classed as cell-based. Conditions: PCLS from human PAH lungs; 200 µM on days 2 and 6, fixed day 10; vessels 20-150 µm; vs DMSO. The text has this: Lungengewebeproben wurden von Patienten mit IPAH entnommen. Aus den mit 3% niedrigschmelzender Agarose gefüllten Lungenproben von Patienten mit IPAH wurden mit einem Vibratom (Leica Biosystems) Gewebeschnitte (400 µm dick) angefertigt. Die Lungengewebeschnitte wurden in DMEM-GlutaMAX-Medium mit 10 % fetalem Kälberserum, 1 % Penicillin/Streptomycin und 0,1 % Amphotericin B (Thermo Fisher Scientific) kultiviert, und die Behandlung wurde am zweiten Tag eingeleitet. Die Substanz SGC-CBP30 wurde in einer Konzentration von 200 µM an den Tagen 2 und 6 verabreicht. Am 10. Tag wurde das Gewebe in 4% Paraformaldehyd (Roti-Histofix; Carl Roth) fixiert und in Paraffin eingebettet. Die mediale Wanddicke wurde in allen Gefäßen mit einer Größe von 20-150 µm in den Lungenschnitten gemessen.
Das therapeutische Potenzial der EP300/CREBBP-Hemmung durch die Substanz SGC-CBP30 wurde untersucht. Dazu wurde die Wirksamkeit auf PAH-FBs und PAH-SMCs geprüft, die aus den Lungenarterien von menschlichen PAH-Patienten und aus den Lungenarterien von Ratten mit MCT-PAH (Rattenmodell mit Monocrotalin) isoliert wurden. […] Die Wirkung der EP300-Hemmung auf das vaskuläre Remodelling wurde durch Quantifizierung der prozentualen medialen Wanddicke in den mit der Substanz SGC-CBP30 inkubierten PCLS im Vergleich zu den mit DMSO inkubierten Kontrollen bewertet. […]

The source of these data is patent EP4257135A1, “BENZIMIDAZOLE DERIVATIVES FOR PULMONARY ARTERIAL HYPERTENSION” (Justus-Liebig-Universität Gießen, priority 2022, dated 2023).

`COc1ccc(CCc2nc3cc(-c4c(C)noc4C)ccc3n2C[C@H](C)N2CCOCC2)cc1Cl` [SGC-CBP30, 2-[2-(3-Chloro-4-methoxyphenyl)ethyl]-5-(3,5-dimethyl-1,2-oxazol-4-yl)-1-[(S)-2-(morpholin-4-yl)propyl]-1H-benzimidazole]: the “mediale Wanddicke der umgestalteten PAs” value is listed as “signifikante Verringerung”.
